Experimental data from ChEMBL document CHEMBL1833945, “Synthesis and anticonvulsant activity of new N-Mannich bases derived from 5-cyclopropyl-5-phenyl- and 5-cyclopropyl-5-(4-chlorophenyl)-imidazolidine-2,4-diones” (Bioorg Med Chem, 2011).
The source made the active and inactive calls. The calls are words filed in the database; no cut-off is given here.

Assays:
[1] = Lipophilicity, log P of compound; format: physicochemical; details: octanol/water
Mus musculus [2] = assay: Anticonvulsant activity in CF1 albino mouse assessed as protection against maximal electroshock-induced seizures at 300 mg/kg, ip after 0.5 hrs; format: functional, organism-based; parameters: dose 300 mg/kg
Mus musculus [3] = assay: Neurotoxicity in ip dosed CF1 albino mouse assessed as minimum dose required to cause impair in motor coordination after 4 hrs by rotarod test; format: toxicity, organism-based; details: in vivo
Mus musculus [4] = assay: Neurotoxicity in ip dosed CF1 albino mouse assessed as minimum dose required to cause impair in motor coordination after 0.5 hrs by rotarod test; format: toxicity, organism-based; details: in vivo
Mus musculus [5] = assay: Anticonvulsant activity in CF1 albino mouse assessed as protection against subcutaneous pentylenetetrazole-induced seizures at 300 mg/kg, […] after 4 hrs; format: functional, organism-based; parameters: dose 300 mg/kg
Mus musculus [6] = assay: Anticonvulsant activity in ip dosed CF1 albino mouse assessed as protection against maximal electroshock-induced seizures after 4 hrs; format: functional; details: read-out: MED
Rattus norvegicus [7] = assay: Neurotoxicity in Sprague-Dawley albino rat assessed as motor impairment at 30 mg/kg, po after 1 hrs by rotarod test; format: toxicity, organism-based; parameters: dose 30 mg/kg, route oral; details: in vivo
Mus musculus [8] = assay: Anticonvulsant activity in ip dosed CF1 albino mouse assessed as protection against maximal electroshock-induced seizures after 0.5 hrs; format: functional; details: read-out: MED
Rattus norvegicus [9] = assay: Neurotoxicity in Sprague-Dawley albino rat assessed as motor impairment at 30 mg/kg, po after 0.5 hrs by rotarod test; format: toxicity, organism-based; parameters: dose 30 mg/kg, route oral; details: in vivo
Rattus norvegicus [10] = assay: Anticonvulsant activity in po dosed Sprague-Dawley albino rat assessed as time to peak effect; format: functional
Rattus norvegicus [11] = organism: Rattus norvegicus; assay: Protective index, ratio of TD50 for neurotoxicity in Sprague-Dawley albino rat to ED50 for inhibition of maximal electroshock-induced seizures in Sprague-Dawley albino rat; format: functional
Rattus norvegicus [12] = assay: Neurotoxicity in Sprague-Dawley albino rat assessed as motor impairment at 30 mg/kg, po after 2 hrs by rotarod test; format: toxicity, organism-based; parameters: dose 30 mg/kg, route oral; details: in vivo
[13] = Neurotoxicity in oral dosed Sprague-Dawley albino rat assessed as motor impairment by rotarod test; format: toxicity, organism-based; details: in vivo
Rattus norvegicus [14] = assay: Neurotoxicity in Sprague-Dawley albino rat assessed as motor impairment at 30 mg/kg, po after 4 hrs by rotarod test; format: toxicity, organism-based; parameters: dose 30 mg/kg, route oral; details: in vivo
Rattus norvegicus [15] = assay: Neurotoxicity in Sprague-Dawley albino rat assessed as motor impairment at 30 mg/kg, po after 0.25 hrs by rotarod test; format: toxicity, organism-based; parameters: dose 30 mg/kg, route oral; details: in vivo
Rattus norvegicus [16] = assay: Anticonvulsant activity in Sprague-Dawley albino rat assessed as protection against maximal electroshock-induced seizures at 30 mg/kg, po after 0.5 hrs; format: functional, organism-based; parameters: dose 30 mg/kg
Rattus norvegicus [17] = assay: Anticonvulsant activity in po dosed Sprague-Dawley albino rat assessed as protection against subcutaneous pentylenetetrazole-induced seizures; format: functional
Rattus norvegicus [18] = assay: Anticonvulsant activity in Sprague-Dawley albino rat assessed as protection against maximal electroshock-induced seizures at 30 mg/kg, po after 4 hrs; format: functional, organism-based; parameters: dose 30 mg/kg
Rattus norvegicus [19] = assay: Anticonvulsant activity in Sprague-Dawley albino rat assessed as protection against maximal electroshock-induced seizures at 30 mg/kg, po after 0.25 hrs; format: functional, organism-based; parameters: dose 30 mg/kg
Mus musculus [20] = assay: Neurotoxicity in CF1 albino mouse assessed as impair in motor coordination at 300 mg/kg, ip after 4 hrs by rotarod test; format: toxicity, organism-based; parameters: dose 300 mg/kg, route intraperitoneal; details: in vivo
Mus musculus [21] = assay: Toxicity in subcutaneous pentylenetetrazole-induced CF1 albino mouse assessed as myoclonic jerks at 300 mg/kg, ip after 4 hrs; format: organism-based; parameters: dose 300 mg/kg; details: in vivo, sc
Mus musculus [22] = assay: Neurotoxicity in CF1 albino mouse assessed as impair in motor coordination at 300 mg/kg, ip after 0.5 hrs by rotarod test; format: toxicity, organism-based; parameters: dose 300 mg/kg, route intraperitoneal; details: in vivo
Mus musculus [23] = assay: Neurotoxicity in CF1 albino mouse assessed as loss of rotard grasping at 300 mg/kg, ip after 0.5 hrs by rotarod test; format: toxicity, organism-based; parameters: dose 300 mg/kg, route intraperitoneal; details: in vivo
Rattus norvegicus [24] = assay: Anticonvulsant activity in po dosed Sprague-Dawley albino rat assessed as protection against maximal electroshock-induced seizures; format: functional
Rattus norvegicus [25] = assay: Neurotoxicity in Sprague-Dawley albino rat assessed as motor impairment at 50 mg/kg, po after 0.5 hrs by rotarod test; format: toxicity, organism-based; parameters: dose 50 mg/kg, route oral; details: in vivo
Rattus norvegicus [26] = assay: Neurotoxicity in Sprague-Dawley albino rat assessed as motor impairment at 50 mg/kg, po after 0.25 hrs by rotarod test; format: toxicity, organism-based; parameters: dose 50 mg/kg, route oral; details: in vivo
Mus musculus [27] = assay: Anticonvulsant activity in ip dosed CF1 albino mouse assessed as protection against subcutaneous pentylenetetrazole-induced seizures after 4 hrs; format: functional; details: read-out: MED
Rattus norvegicus [28] = assay: Neurotoxicity in Sprague-Dawley albino rat assessed as motor impairment at 50 mg/kg, po after 1 hrs by rotarod test; format: toxicity, organism-based; parameters: dose 50 mg/kg, route oral; details: in vivo
Mus musculus [29] = assay: Anticonvulsant activity in ip dosed CF1 albino mouse assessed as protection against subcutaneous pentylenetetrazole-induced seizures after 0.5 hrs; format: functional; details: read-out: MED
Mus musculus [30] = assay: Neurotoxicity in CF1 albino mouse assessed as minimum dose causing loss of righting reflex at 300 mg/kg, ip after 4 hrs by rotarod test; format: toxicity, organism-based; parameters: dose 300 mg/kg, route intraperitoneal; details: in vivo
Mus musculus [31] = assay: Anticonvulsant activity in CF1 albino mouse assessed as protection against electrically-induced seizure at 100 mg/kg, ip after 0.25 hrs by 6Hz psychomotor seizure test; format: functional, organism-based; parameters: dose 100 mg/kg
Rattus norvegicus [32] = assay: Neurotoxicity in Sprague-Dawley albino rat assessed as motor impairment at 50 mg/kg, po after 2 hrs by rotarod test; format: toxicity, organism-based; parameters: dose 50 mg/kg, route oral; details: in vivo
Rattus norvegicus [33] = assay: Neurotoxicity in Sprague-Dawley albino rat assessed as motor impairment at 50 mg/kg, po after 4 hrs by rotarod test; format: toxicity, organism-based; parameters: dose 50 mg/kg, route oral; details: in vivo
Rattus norvegicus [34] = assay: Anticonvulsant activity in Sprague-Dawley albino rat assessed as protection against subcutaneous pentylenetetrazole-induced seizures at 50 mg/kg, po after 0.25 hrs; format: functional, organism-based; parameters: dose 50 mg/kg

SMILES | logP [1] | Activity (Mus musculus [2]) | MTC (Mus musculus [3]) [mg/kg] | MTC (Mus musculus [4]) [mg/kg] | Activity (Mus musculus [5]) | minimal effective dose (Mus musculus [6]) [mg/kg] | Activity (Rattus norvegicus [7]) | minimal effective dose (Mus musculus [8]) [mg/kg] | Activity (Rattus norvegicus [9]) | Activity (Rattus norvegicus [12]) | Activity (Rattus norvegicus [14]) | Activity (Rattus norvegicus [15]) | Activity (Rattus norvegicus [16]) | Activity (Mus musculus [20]) | other results
O=C(OCc1ccccc1)N1CCN(CN2C(=O)NC(c3ccc(Cl)cc3)(C3CC3)C2=O)CC1 (stereo not drawn) | 3.65 | inactive | 300 | 300 | inactive | 100 |  |  |  |  |  |  |  |  | 
O=C1NC(=O)C(c2ccccc2)(c2ccccc2)N1 [PHENYTOIN] |  |  | 100 | 100 | inactive | 30 | Non-toxic | 30 | Non-toxic | Non-toxic | Non-toxic | Non-toxic | Active |  | Time (Rattus norvegicus [10]): 1 h; PI (Rattus norvegicus [11]): >35.58; TD50 [13]: > 1000 mg/kg; ED50 (Rattus norvegicus [17]): > 500 mg/kg
O=C1NC(c2ccccc2)(C2CC2)C(=O)N1CN1CCc2ccccc2C1 (stereo not drawn) | 3.02 |  |  | 100 |  | 300 | Non-toxic | 300 | Non-toxic | Non-toxic | Non-toxic | Non-toxic | inactive | Non-toxic | Activity (Rattus norvegicus [18]): Active; Activity (Rattus norvegicus [19]): inactive; Activity (Mus musculus [21]): Toxic
O=C1NC(c2ccccc2)(C2CC2)C(=O)N1CN1CCN(c2ccccc2F)CC1 (stereo not drawn) |  | inactive |  |  | inactive | 100 |  |  |  |  |  |  |  | Non-toxic | Activity (Mus musculus [22]): Non-toxic
CC(c1ccccc1)N1CCN(CN2C(=O)NC(c3ccc(Cl)cc3)(C3CC3)C2=O)CC1 (stereo not drawn) | 3.9 |  |  |  | inactive | 300 |  | 300 |  |  |  |  |  | Non-toxic | Activity (Mus musculus [23]): Toxic
O=C1NC(c2ccccc2)(C2CC2)C(=O)N1CN1CCN(CCc2ccccc2)CC1 (stereo not drawn) | 2.98 | inactive | 300 |  |  | 30 | Non-toxic |  | Non-toxic | Non-toxic | Non-toxic | Non-toxic | inactive |  | Activity (Rattus norvegicus [18]): Active; Activity (Rattus norvegicus [19]): inactive; Activity (Mus musculus [22]): Non-toxic; Time (Rattus norvegicus [10]): 4 h; PI (Rattus norvegicus [11]): >5.86; TD50 [13]: > 100 mg/kg; ED50 (Rattus norvegicus [24]): 17.1 mg/kg; Activity (Mus musculus [21]): Toxic
O=C1NC(c2ccc(Cl)cc2)(C2CC2)C(=O)N1CN1CCOCC1 (stereo not drawn) | 2 |  |  |  |  | 100 |  | 100 |  |  |  |  |  |  | Activity (Rattus norvegicus [25]): Non-toxic; Activity (Rattus norvegicus [26]): Non-toxic; minimal effective dose (Mus musculus [27]): 300 mg/kg; Activity (Rattus norvegicus [28]): Non-toxic; minimal effective dose (Mus musculus [29]): 100 mg/kg; Activity (Mus musculus [30]): Toxic; Activity (Mus musculus [31]): inactive; Activity (Mus musculus [23]): Toxic; Activity (Rattus norvegicus [32]): Non-toxic; Activity (Rattus norvegicus [33]): Non-toxic; Activity (Rattus norvegicus [34]): inactive
